The text below walks through data of patent US20260048051A1, “TREATMENT OF INFLAMMATORY BOWEL DISEASE” (Atomwise Inc., priority 2024, published 2026).

This assay deals with T1, TYK2-JH2 (Homo sapiens, UniProt P29597).
T1 construct: TYK JH2 enzyme mix (ChemPartner: CP20210818A-BV); purchased ChemPartner CP20210818A-BV
T1 sequence (P29597 589-875 limits assumed): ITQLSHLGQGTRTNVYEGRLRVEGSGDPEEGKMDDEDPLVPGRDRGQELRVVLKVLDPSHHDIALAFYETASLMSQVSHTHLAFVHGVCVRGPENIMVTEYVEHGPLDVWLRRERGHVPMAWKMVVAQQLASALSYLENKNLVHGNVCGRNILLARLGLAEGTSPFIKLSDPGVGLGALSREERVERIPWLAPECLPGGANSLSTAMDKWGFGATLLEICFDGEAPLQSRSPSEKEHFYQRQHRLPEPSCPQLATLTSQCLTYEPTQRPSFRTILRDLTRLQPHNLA
Briefly: TYK2-JH2 HTRF binding assay (ligand efficiency). Particulars: calculated from binding-assay IC50 (Equation 1). As for the experimental part: The following example describes the TYK2-JH2 HTRF binding assay used to determine the ligand efficiency of the TYK2 inhibitors.
To calculate ligand efficiency, Equation 1 is applied: […]
in which IC50 comes from the binding assay used to determine compound potency.
TYK JH2 enzyme mix (ChemPartner: CP20210818A-BV), tracer (ChemPartner: CP-0029472-051) and mAb Anti-6HIS Tb cryptate Gold (Cisbio: Cat No. 61HI2TLA) mix were prepared in assay buffer (10 mM MgCl2, 20 mM HEPES pH 7.5, 0.01% Triton X-100, 1 mM DTT). Compounds diluted in DMSO (Final Concentrations 0.1 to 0.000005 [μM]) and enzyme mix (0.5 nM Final Concentration) were added to 384 well plates, briefly centrifuged and incubated at room temperature for 10 minutes. After incubation, tracer mix (Tracer-35 nM final concentration); (MAb Anti-6HIS Tb cryptate Gold-0.5× final)) was added, briefly centrifuged then incubate at room temperature 60 minutes. After incubation, plates were read by Envision TR-FRET (Ex340/Em495/520) protocol (PerkinElmer-Envision 2104 multilabel plate reader).
`CC(c1ccc(Nc2cc(Nc3ncccc3S(C)(=O)=O)ncn2)nc1)N1CCCC1` (stereo in doubt) [Compound 15, (R)—N^4-(3-(methylsulfonyl)pyridin-2-yl)-N^6-(5-(1-(pyrrolidin-1-yl)ethyl)pyridin-2-yl)pyrimidine-4,6-diamine]: the “Ligand Efficiency” value was “††† (†††: >0.39)”.

For the molecule `CS(=O)(=O)c1cccnc1Nc1cc(Nc2ncccc2F)ncn1` [Compound 64, N^4-(3-fluoropyridin-2-yl)-N^6-(3-(methylsulfonyl)pyridin-2-yl) pyrimidine-4,6-diamine], the “Ligand Efficiency” value is “††† (†††: >0.39)”.

On to `Cc1cccc(Nc2cc(Nc3ccccc3S(C)(=O)=O)nc(C)n2)n1` [Compound 56, 2-methyl-N^4-(6-methylpyridin-2-yl)-N^6-(2-(methylsulfonyl)phenyl) pyrimidine-4,6-diamine], for which the “Ligand Efficiency” value is “† (†: < 0.37)”. The result for `C[C@H](c1ccc(Nc2cc(Nc3ncccc3S(C)(=O)=O)ncn2)nc1)N1CCC2(CCOCC2)C1` [Compound 30, (R)—N^4-(5-(1-(8-oxa-2-azaspiro[4.5]decan-2-yl)ethyl)pyridin-2-yl)-N^6-(3-(methylsulfonyl)pyridin-2-yl)pyrimidine-4,6-diamine] reads “†† (††: 0.37-0.39)”.

On to `Cn1ccc(Nc2cc(Nc3ccccc3S(C)(=O)=O)ncn2)n1` [Compound 66, N^4-(1-methyl-1H-pyrazol-3-yl)-N^6-(2-(methylsulfonyl)phenyl) pyrimidine-4,6-diamine], for which the “Ligand Efficiency” value is listed as “††† (†††: >0.39)”. Regarding `C[C@@H](c1ccc(Nc2cc(Nc3ncc(Cl)cc3S(C)(=O)=O)ncn2)nc1)N1CC2(COC2)C1` [Compound 14, (S)—N^4-(5-(1-(2-oxa-6-azaspiro[3.3]heptan-6-yl)ethyl)pyridin-2-yl)-N^6-(5-chloro-3-(methylsulfonyl)pyridin-2-yl)pyrimidine-4,6-diamine], the “Ligand Efficiency” value is reported as “††† (†††: >0.39)”.

For the molecule `Cc1nccc(Nc2cc(Nc3ccccc3C(N)=O)ncn2)n1` [Compound 48, 2-((6-((2-methylpyrimidin-4-yl)amino)pyrimidin-4-yl)amino) benzamide], the “Ligand Efficiency” value was “††† (†††: >0.39)”. Then `Cc1ccnc(Nc2cc(Nc3ccccc3P(C)(C)=O)ncn2)c1` [Compound 63, N^4-(2-(dimethylphosphoryl)phenyl)-N^6-(4-methylpyridin-2-yl) pyrimidine-4,6-diamine], with “††† (†††: >0.39)”. The result for `CC(c1ccc(Nc2ncnc(Nc3ncccc3S(C)(=O)=O)c2F)nc1)N1CC2(COC2)C1` (stereo not drawn) [Compound 75, N^4-(5-(1-(2-oxa-6-azaspiro[3.3]heptan-6-yl)ethyl)pyridin-2-yl)-5-fluoro-N^6-(3-(methylsulfonyl)pyridin-2-yl)pyrimidine-4,6-diamine] reads “† (†: < 0.37)”; that for `CS(=O)(=O)c1ccccc1Nc1cc(Nc2ccc(C3(NC4COC4)CC3)cn2)ncn1` [Compound 41, N^4-(2-(methylsulfonyl)phenyl)-N^6-(5-(1-(oxetan-3-ylamino)cyclopropyl)pyridin-2-yl)pyrimidine-4,6-diamine], “†† (††: 0.37-0.39)”. The result for `C[C@H]1COCCN1c1ccc(Nc2cc(Nc3ccccc3S(C)(=O)=O)ncn2)nc1` [Compound 54, (S)—N^4-(5-(3-methylmorpholino)pyridin-2-yl)-N^6-(2-(methylsulfonyl)phenyl)pyrimidine-4,6-diamine] reads “† (†: < 0.37)”; that for `CC1(Nc2ccc(Nc3cc(Nc4ncccc4S(C)(=N)=O)ncn3)nc2)COC1` (stereo not drawn) [Compound 73, N^4-(5-((3-methyloxetan-3-yl)amino)pyridin-2-yl)-N^6-(3-(S-methylsulfonimidoyl)pyridin-2-yl)pyrimidine-4,6-diamine], “††† (†††: >0.39)”; that for `CC(c1ccc(Nc2cc(Nc3ncc(C4COC4)cc3S(C)(=O)=O)ncn2)nc1)N1CC2(COC2)C1` (stereo not drawn) [Compound 78, N^4-(5-(1-(2-oxa-6-azaspiro[3.3]heptan-6-yl)ethyl)pyridin-2-yl)-N^6-(3-(methylsulfonyl)-5-(oxetan-3-yl)pyridin-2-yl)pyrimidine-4,6-diamine], “† (†: < 0.37)”. In the case of `Cc1cccc(Nc2cc(Nc3cccnc3S(C)(=O)=O)ncn2)n1` [Compound 59, N^4-(6-methylpyridin-2-yl)-N^6-(2-(methylsulfonyl)pyridin-3-yl) pyrimidine-4,6-diamine], the “Ligand Efficiency” value is given as “††† (†††: >0.39)”. In the case of `CS(=O)(=O)c1ccccc1Nc1cc(Nc2ccc(CNC3CCOC3)cn2)ncn1` (stereo not drawn) [Compound 28, N^4-(2-(methylsulfonyl)phenyl)-N^6-(5-((tetrahydrofuran-3-ylamino)methyl)pyridin-2-yl)pyrimidine-4,6-diamine], the “Ligand Efficiency” value is reported as “†† (††: 0.37-0.39)”.

With `Cc1ccnc(Nc2cc(Nc3ccccc3C(N)=O)ncn2)n1` [Compound 58, 2-(6-(4-methylpyrimidin-2-ylamino)pyrimidin-4-ylamino)benzamide], the “Ligand Efficiency” value is reported as “††† (†††: >0.39)”. Then `CC(C)(c1ccc(Nc2cc(Nc3ncccc3S(C)(=O)=O)ncn2)nc1)N1CC2(CCOCC2)C1` [Compound 33, N^4-(5-(2-(7-oxa-2-azaspiro[3.5]nonan-2-yl)propan-2-yl)pyridin-2-yl)-N^6-(3-(methylsulfonyl)pyridin-2-yl)pyrimidine-4,6-diamine], with “†† (††: 0.37-0.39)”; and `CC1(Nc2cnc(Nc3cc(Nc4ncccc4S(C)(=O)=O)ncn3)cn2)COC1` [Compound 74, N^4-(5-(3-methyloxetan-3-ylamino)pyrazin-2-yl)-N^6-(3-(methylsulfonyl)pyridin-2-yl)pyrimidine-4,6-diamine], with “††† (†††: >0.39)”. The result for `Cc1cccc(Nc2cc(Nc3cnccc3C(N)=O)ncn2)n1` [Compound 61, 3-((6-((6-methylpyridin-2-yl)amino)pyrimidin-4-yl)amino) isonicotinamide] reads “††† (†††: >0.39)”; that for `CC(NC1CCOC1)c1ccc(Nc2cc(Nc3ccccc3S(C)(=O)=O)ncn2)nc1` (stereo not drawn) [Compound 26, N^4-(2-(methylsulfonyl)phenyl)-N^6-(5-(1-(tetrahydrofuran-3-ylamino)ethyl)pyridin-2-yl)pyrimidine-4,6-diamine], “†† (††: 0.37-0.39)”. Then `Cc1cccc(Nc2cc(Nc3ncccc3CS(C)(=O)=O)ncn2)n1` [Compound 71, N^4-(6-methylpyridin-2-yl)-N^6-(3-((methylsulfonyl)methyl)pyridin-2-yl)pyrimidine-4,6-diamine], with “††† (†††: >0.39)”; and `CC1(Nc2ccc(Nc3cc(Nc4ncccc4S(C)(=O)=O)ncn3)nc2)COC1` [Compound 21, N^4-(5-((3-methyloxetan-3-yl)amino)pyridin-2-yl)-N^6-(3-(methylsulfonyl)pyridin-2-yl)pyrimidine-4,6-diamine], with “††† (†††: >0.39)”; and `Cn1ccc(Nc2cc(Nc3ccccc3C(N)=O)ncn2)n1` [Compound 67, 2-((6-((1-methyl-1H-pyrazol-3-yl)amino)pyrimidin-4-yl)amino)benzamide], with “††† (†††: >0.39)”. With `CS(=O)(=O)c1ccccc1Nc1cc(Nc2ccc3c(n2)CCCC3N2CC3(CCOCC3)C2)ncn1` (stereo not drawn) [Compound 27, N^4-(5-(7-oxa-2-azaspiro[3.5]nonan-2-yl)-5,6,7,8-tetrahydroquinolin-2-yl)-N^6-(2-(methylsulfonyl)phenyl)pyrimidine-4,6-diamine], the “Ligand Efficiency” value is “† (†: < 0.37)”.
